Experimental data published in publication PMC6982022 (International Journal of Molecular Sciences, 2019).
Where two headings read alike, the source gives them in different places.

Tests used:
C57BL6J mice [1] = test: Epididymal sperm acrosome morphology (FITC-PSA staining) after 35 days oral dosing; type: in vivo, mouse; details: for Sperm morphology Abnormal, average (%) / Sperm morphology Normal, average (%): six mice/group
Description: (§1) Groups of six mice, each, were used for three different doses of NB-DNJ or NB-DGJ formulated in milliQ water at 50 mg/kg, 25 mg/kg and 15 mg/kg, respectively. Control groups were given an equivalent volume of water. Animals were given compound or control once daily for 35 consecutive days via oral gavage using animal feeding needles (Biomedical Needles, Popper, NY, USA). Body weight was noted every week for all treatment groups. Mice were euthanized at the end of a 35 days dosing regimen using CO2 asphyxia followed by cervical dislocation. Testes were harvested, weighed and stored in Bouin’s fixative for 48 h, then sliced into two halves, and stored in fresh Bouin’s for another 24 h. The tissue slices were then rinsed in 70% ethanol and processed and stained for histology using a standard protocol for Hematoxylin and eosin staining. Spermatids with elongated and abnormally shaped heads were counted per 20 fields and average number calculated for 6 mice/group.
For sperm retrieval, epididymis was removed from the animal and placed in Petri dish. One mL of capacitation buffer (Capacitation buffer consisted of 110 mM NaCl, 2.68 mM KCl, 0.36 mM NaH2PO4, 25 mM NaHCO3, 0.49 mM MgCl2, 2.40 mM CaCl2, 25 mM HEPES, 5.50 mM Glucose, 1 mM Pyruvic acid, pH 7.4; Tash and Bracho, 1998) at room temperature was added to the dish. Using forceps, the caput of the epididymis was held in place and the cauda sliced repeatedly with a razor blade. The spermatozoa were allowed to disperse for 15 min with gentle swirling intermittently. A 100 µL aliquot of the sperm suspension was dropped onto a standard glass microscope slide (Fisherbrand superfrost microscope slides 25 × 75 × 1.0 mm)) and smeared with side of pipette tip. The slides were air dried flat for 1 h at room temperature. The sperm smear was fixed in methanol for 2 min. The sperm smear was than stained using FITC-PSA (Fluorescein isothiocyanate Pisum Sativum Agglutinin; Vector Laboratories, Burlingame, CA) was diluted 1:7000 in PBS containing 1:10,000 DAPI dihydrochloride, FluoroPure™ grade, Invitrogen) (≥98% pure) to make the stock solution. To each slide, 100 µL of FITC-PSA was added and spread out with edge of pipette tip to cover the dried sperm smear. The slides were incubated at 37 °C for 10 min, and then washed with 5 changes of PBS for 5 min each. The slides were air-dried and mounted with 20 µL Vectashield mounting medium for fluorescence (Vector Laboratories, Burlingame, CA, USA) and observed. Slides were viewed on a Nikon IX-81 microscope under a 40× objective using FITC and DAPI filter to visualize acrosome morphology. The phase contrast images were also collected at the same magnification to compare morphological details.

C57BL6J mice [2] = test: Testis histology (H&E) after 35 days oral dosing; type: in vivo, mouse; details: 15, 25 or 50 mg/kg, oral daily
Description: as §1

[3] = Pharmacokinetic study, single oral bolus, plasma LC/MS/MS; type: in vivo, rat; details: male CD rats, single oral 150 mg/kg; for Cmax: male, CD, plasma, po, 150 mg/kg
Description: Four male CD rats (225–235 g) were purchased from Harlan (Indianapolis, IN, USA) with in-dwelling jugular cannulas and allowed to acclimate for 72 h in climate-regulated holding rooms in the University of Minnesota’s AAALAC-certified animal facilities. Standard rat chow and water were provided ad libitum throughout the study. NB-DGJ was formulated as described above to 33.75 mg/mL for in vivo administration. Rats were dosed orally by using a 15 G × 3” disposable gavage needle with a maximum volume of 5 mL/kg body weight. At various time points (0.083, 0.25, 0.5, 1, 2, 4, 8, 12, 24 and 48 h) following dosing, approximately 0.1 mL of blood was collected from each rat into BD Microtainer® with Lithium Heparin (Becton-Dickinson). Plasma was then isolated by allowing the samples to sit at room temperature for 30 min followed by microcentrifugation at 15,000× g for 5 min. Plasma samples were then stored at −70 °C until processing and analysis.
Frozen plasma samples were thawed on ice and processed by adding 2 volumes of 100% acetonitrile (containing 750 ng/mL miglitol (N-hydroxyethyl-1-deoxynojirimycin) as an internal standard) and vortexed. The samples were then incubated on ice for 1 h and then microcentrifuged at 15,000× g for 5 min. The cleared supernatants were then transferred to 12 × 32 mm glass vials with inserts (Thermo Scientific™ National™ Inserts for Target™ LoVial™ Wide-Opening Vials).
Processed samples were analyzed by LC/MS/MS using a previously published method. A standard curve consisting of normal rat plasma containing varying concentrations (1500, 500, 166.7, 55.6, 18.5, 6.2, 2.1, 0.7 and 0.22 ng/mL) of NB-DGJ was constructed and processed as described above. The analytical system was composed of a Quattro Ultima triple quadrupole MS/MS coupled with a Waters Acquity UPLC (Ultra Performance Liquid Chromatography). UPLC isocratic separation of analytes was performed using a Waters Atlantis Hilic 3 µm, 150 × 2.1 mm analytical column (Waters Corporation, Milford, MA, USA) maintained at 30 °C. The eluent was a mixture of acetonitrile/water/buffer (75/10/15, v/v/v) delivered at 0.25 mL/min. The buffer consisted of 100 mM ammonium acetate, pH 5. For the quantification of NB-DGJ and miglitol (internal standard), the transitions m/z 220 (Q1) → m/z 158 (Q3) and m/z 208 (Q1) → m/z 146 (Q3) were monitored, respectively. Data reduction was performed with QuanLynx software. PK analysis was performed by WinNonLin using a non-compartmental model.

CGT = details: cited from earlier work
C57BL/6 mice = details: cited from earlier work

For `CCCCN1C[C@H](O)[C@@H](O)[C@@H](O)[C@H]1CO` [NB-DGJ, N-butyldeoxygalactonojirimycin], the “Sperm morphology Abnormal, average (%)” value (C57BL6J mice [1]; 15 mg/kg oral daily) was 51.59%, the “Sperm morphology Normal, average (%)” value (C57BL6J mice [1]; 15 mg/kg oral daily) was 48.4% and the “Sperm morphology Abnormal, average (%)” value (C57BL6J mice [1]; 25 mg/kg oral daily) was 62.05%. For the same compound, the “Sperm morphology Normal, average (%)” value (C57BL6J mice [1]; 25 mg/kg oral daily) was 37.85%, the “Sperm morphology Abnormal, average (%)” value (C57BL6J mice [1]; 50 mg/kg oral daily) was 88.21% and the “Sperm morphology Normal, average (%)” value (C57BL6J mice [1]; 50 mg/kg oral daily) was 11.78%. For the same compound, the “Sperm acrosome morphology (in words)” value (C57BL6J mice [1]; 15, 25 and 50 mg/kg oral daily) was “dose-dependent increase in the number of abnormal spermatozoa”, the “Testis histology, spermatid heads (in words)” value (C57BL6J mice [2]) was “rounded, abnormally shaped spermatid heads” and the t½_Lambda_z ([3]; n = 4, plasma) was 6.5 h. It also gave a Cmax ([3]; rat, converted from ng/mL, read-out: Cmax (plasma level) in molar units) of 50 µM, a Cmax ([3]; rat, n = 4, plasma, read-out: Cmax) of 11000 ng/mL and a tmax ([3]; rat, n = 4, plasma) of 1.3 h. For the same compound, the AUC(0-inf) ([3]; rat, n = 4, plasma, non-compartmental, read-out: AUCINF_Obs) was 55600 ng·h/mL, the IC50 (CGT; ref 20) was 41.4 µM and the IC50 (CGT; ref 36) was 10 µM. For the same compound, the “Effect on fertility (in words)” value (C57BL/6 mice; C57BL/6J male mice, 150 mg/kg) was “reversible infertility”, the “Time for fertility to resume” value (C57BL/6 mice; C57BL/6J mice) was “approximately three weeks” and the “Testicular histology, spermiogenesis (in words)” value (C57BL/6 mice; dose equivalent to 1200 mg/kg of NB-DNJ) was “disrupts spermiogenesis”.
